Source: patent US10323000B2, “Indole derivatives and their use in neurodegenerative diseases” (priority 2014, dated 2019)
Read-outs that look alike come from different tables or passages of the source.

Tests used:
[1] = target: P2X7 (IL-1β release from THP-1 cells) (Homo sapiens (Human), UniProt Q99572); experiment: IL-1β release assay; format: cell-based
Description: IL-1β release assay: The activation of P2X7 by ATP leads to a fast transient activation of cells resulting in influx of Ca^2+ followed by conversion of pro-IL-1β to active IL-1β. The functional activity of P2X7 compounds was measured by the release of mature […] in the culture medium of THP-1 cells, detected by sandwich ELISA. […] THP-1 cells were harvested from the flask in 50 ml by centrifugation for 3 min at 100 g. The cells were resuspended to 2×10^5 cells/ml in medium supplemented with 0.5 μM PMA and incubated. The cells were washed and resuspended to 1.5×10^5 cells/ml in medium complemented with 10 ng/ml LPS, and the cells were primed for 4 h at 37° C., 5% CO2. After addition of 20 μL of prediluted test compounds, blank, standard and control reagents, cells were incubated for a further 20 min at 37° C. and stimulated with 0.8 mM BzATP for 30 minutes. The cells were centrifuged, supernatant was collected and the presence of mature IL-1β was detected using Dual human IL-1b kit following manufacturer's instruction. The tetrahydrobenzodiazepine analogs effectively modulated the activity of P2X7 in the cells as measured by the levels of pro-inflammatory cytokine IL-1β, which is released by the activation of P2X7 receptor.

[2] = target: human P2X7 receptor (Homo sapiens (Human), UniProt Q99572); experiment: Pore permeation assay (YO PRO dye uptake); format: cell-based
[3] = HEK293 transfected with human P2X7, BzATP 10 uM, YO PRO dye uptake, read-out: hP2X7 IC50
[4] = THP-1 cells, LPS primed, 0.8 mM BzATP, mature IL-1β by sandwich ELISA, read-out: hTHP-1/IL-ib IC50

Chain of P2X7 (IL-1β release from THP-1 cells) (Q99572 whole entry): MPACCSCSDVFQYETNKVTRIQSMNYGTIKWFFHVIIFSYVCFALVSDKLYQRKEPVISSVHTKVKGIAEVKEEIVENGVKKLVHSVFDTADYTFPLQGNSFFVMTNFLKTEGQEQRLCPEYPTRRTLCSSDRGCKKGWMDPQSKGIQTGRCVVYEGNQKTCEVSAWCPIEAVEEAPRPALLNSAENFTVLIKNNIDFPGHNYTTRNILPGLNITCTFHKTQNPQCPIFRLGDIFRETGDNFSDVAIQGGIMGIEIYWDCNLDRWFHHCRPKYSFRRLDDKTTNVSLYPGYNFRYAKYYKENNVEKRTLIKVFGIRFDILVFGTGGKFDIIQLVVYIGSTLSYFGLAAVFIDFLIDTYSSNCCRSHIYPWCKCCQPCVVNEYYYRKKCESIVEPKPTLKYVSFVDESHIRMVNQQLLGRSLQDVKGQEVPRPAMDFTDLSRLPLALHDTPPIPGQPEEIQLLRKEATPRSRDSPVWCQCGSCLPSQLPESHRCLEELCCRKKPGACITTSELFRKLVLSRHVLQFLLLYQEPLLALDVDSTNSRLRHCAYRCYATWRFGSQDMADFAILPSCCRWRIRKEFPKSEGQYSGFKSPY
Chain of human P2X7 receptor (Q99572 whole entry): as above

Row | SMILES | IC50 [1] | IC50 [2] | IC50 [2, 3] | IC50 [1, 4]
1 | CC(NC(=O)c1cn(C2COC2)c2cccc(Cl)c12)[C@]12C[C@H]3C[C@H](C[C@H](C3)C1)C2 (some centres unmarked) [Compound 62, 4-Chloro-1-oxetan-3-yl-1H-indole-3-carboxylic acid (1-adamantan-1-yl-ethyl)-amide] | 0.01 to 0.1 µM | 0.01 to 0.1 µM |  | 
2 | CC1(C)CCCC(O)(CNC(=O)c2cn(C3COC3)c3cccc(Cl)c23)C1 (centres unmarked) [Compound 64, 4-Chloro-1-oxetan-3-yl-1H-indole-3-carboxylic acid (1-hydroxy-3,3-dimethyl-cyclohexylmethyl)-amide] | 0.01 to 0.1 µM | 0.01 to 0.1 µM |  | 
3 | O=C(NCC1(O)CCCCCC1)c1cn(C2COC2)c2cccc(Cl)c12 [Compound 65, 4-Chloro-1-oxetan-3-yl-1H-indole-3-carboxylic acid (1-hydroxy-cycloheptylmethyl)-amide] | 0.101 to 0.5 µM | 0.01 to 0.1 µM |  | 
4 | O=C(NC[C@@H]1CCCC(F)(F)C1)c1cn(C2COC2)c2cccc(Cl)c12 [Compound 66, 4-chloro-N—(((R)-3,3-difluorocyclohexyl)methyl)-1-(oxetan-3-yl)-1H-indole-3-carboxamide] | 0.101 to 0.5 µM | 0.01 to 0.1 µM |  | 
5 | O=C(NC[C@H]1CCCC(F)(F)C1)c1cn(C2COC2)c2cccc(Cl)c12 [Compound 67, 4-chloro-N—(((S)-3,3-difluorocyclohexyl)methyl)-1-(oxetan-3-yl)-1H-indole-3-carboxamide] | 0.01 to 0.1 µM | 0.01 to 0.1 µM |  | 
6 | O=C(NCC1CCCC2(CC2)C1)c1cn(C2COC2)c2cccc(Cl)c12 (centres unmarked) [Compound 68, 4-chloro-1-(oxetan-3-yl)-N-(spiro[2.5]octan-5-ylmethyl)-1H-indole-3-carboxamide] | 0.01 to 0.1 µM |  | < 0.01 µM | 
7 | O=C(NCC(c1ccccc1)C1CCCC1)c1cn(C2COC2)c2cccc(Cl)c12 (centres unmarked) [Compound 70, 4-Chloro-1-oxetan-3-yl-1H-indole-3-carboxylic acid (2-cyclopentyl-2-phenyl-ethyl)-amide] | 0.101 to 0.5 µM | 0.01 to 0.1 µM |  | 
8 | O=C(NCCOC1CCCC1)c1cn(C2COC2)c2cccc(Cl)c12 [Compound 72, 4-Chloro-1-oxetan-3-yl-1H-indole-3-carboxylic acid (2-cyclopentyloxy-ethyl)-amide] |  | 0.5 to 0.999 µM |  | > 1 µM
9 | O=C(NCCCC(F)(F)F)c1cn(C2COC2)c2cccc(Cl)c12 [Compound 73, 4-Chloro-1-oxetan-3-yl-1H-indole-3-carboxylic acid (4,4,4-trifluoro-butyl)-amide] | 0.5 to 0.999 µM | 0.101 to 0.5 µM |  | 
10 | O=C(NCC1CCCOC1)c1cn(C2COC2)c2cccc(Cl)c12 (centres unmarked) [Compound 74, 4,4-Chloro-1-oxetan-3-yl-1H-indole-3-carboxylic acid (tetrahydro-pyran-3-ylmethyl)-amide] |  |  | > 1 µM | > 1 µM
11 | O=C(NCC[C@@H]1C[C@@H]2C=C[C@H]1C2)c1cn(C2COC2)c2cccc(Cl)c12 [Compound 75, 4-Chloro-1-oxetan-3-yl-1H-indole-3-carboxylic acid ((1S,2S,4S)-2-bicyclo[2.2.1]hept-5-en-2-yl-ethyl)-amide] | 0.01 to 0.1 µM |  | < 0.01 µM | 
12 | O=C(NCC1(O)CCCC1)c1cn(C2COC2)c2cccc(Cl)c12 [Compound 81, 4-Chloro-1-oxetan-3-yl-1H-indole-3-carboxylic acid (1-hydroxy-cyclopentylmethyl)-amide] | 0.5 to 0.999 µM | 0.101 to 0.5 µM |  | 
13 | O=C(NCCC1CCCC1)c1cn(C2COC2)c2cccc(Cl)c12 [Compound 82, 4-Chloro-1-oxetan-3-yl-1H-indole-3-carboxylic acid (2-cyclopentyl-ethyl)-amide] | 0.101 to 0.5 µM |  | < 0.01 µM | 
14 | CC1CCCC(O)(CNC(=O)c2cn(C3COC3)c3cccc(Cl)c23)C1 (centres unmarked) [Compound 83, 4-chloro-N-((1-hydroxy-3-methylcyclohexyl)methyl)-1-(oxetan-3-yl)-1H-indole-3-carboxamide] | 0.01 to 0.1 µM |  | < 0.01 µM | 
15 | O=C(NC[C@@]1(O)CCCC(F)(F)C1)c1cn(C2COC2)c2cccc(Cl)c12 [Compound 84, (R)-4-chloro-N-((3,3-difluoro-1-hydroxycyclohexyl)methyl)-1-(oxetan-3-yl)-1H-indole-3-carboxamide] | 0.101 to 0.5 µM | 0.101 to 0.5 µM |  | 
16 | O=C(NC[C@]1(O)CCCC(F)(F)C1)c1cn(C2COC2)c2cccc(Cl)c12 [Compound 85, (S)-4-chloro-N-((3,3-difluoro-1-hydroxycyclohexyl)methyl)-1-(oxetan-3-yl)-1H-indole-3-carboxamide] | 0.01 to 0.1 µM | 0.01 to 0.1 µM |  | 
